Data on three compounds can be found in US20030059421A1, “DNA encoding the baboon and cynomolgus macaque prostoglandin E2 receptor EP4 subtype” (Pfizer Inc., priority 2001, published 2003).

In test [1] the target is T1, cynomolgus macaque prostaglandin receptor EP4 (cynEP4) (Macaca fascicularis, UniProt Q95J39). In words: cAMP accumulation (SPA) in CHO cells transiently transfected with cynomolgus macaque EP4. The format is cell-based. As to conditions: 12 minutes treatment, IBMX present. As to the method:
FIG. 7 provides characterization of secondary signaling in CHO cells expressing cynomolgus macaque prostaglandin receptor EP4. An SPA assay was performed on CHO cells transiently transfected with cynEP4 following treatment for 12 minutes with either (▪) PGE2 or the EP4 specific ligand (●) EP4SL. Error bars represent one standard deviation.
(§1) Secondary signaling in CHO cells expressing baEP4 or cynEP4 was measured by cAMP accumulation. CHO cells transiently transfected with baEP4 or cynEP4 were treated for 12 minutes with various concentrations of PGE2 in the presence of 2 mM IBMX. Accumulation of intracellular cAMP was measured at the end of the treatment period by use of a commercially available scintillation proximity assay (SPA) kit (Amersham, Arlington Heights, Ill.).
(§2) The day prior to transfection, CHO—K1 cells were plated in 100 mm dishes (Corning, Corning, N.Y.) at 6×10^4 cells/cm^2 in DMEM/F12 (Life Technologies) supplemented with 10% fetal calf serum (FCS; Gemini Bio-Products, Calabasas, Calif.). […]
(§3) To measure stimulation of cAMP production, CHO cells transiently transfected with the baboon EP4 or cynomolgus macaque EP4 receptor were plated at 20,000 cells/well in poly-D lysine coated 96-well tissue-culture plates (Becton-Dickinson, Franklin Lakes, N.J.) and allowed to grow for 72 hours. […] Assay plates were then counted in a Wallac Trilux counter (Perkin Elmer, Boston, Mass.).
(In general: Changes in cAMP serve as a functional read-out for many G protein-coupled receptors.)

The subject of another test is parental CHO—K1 cells. In words: cAMP levels in parental CHO-K1 cells. The class given is cell-based, Chinese hamster. As to conditions: parental (untransfected) CHO-K1 cells.
Test [2] concerns the target T2, baboon prostaglandin receptor EP4 (baEP4) (Papio cynocephalus, UniProt Q7JGJ7). The test can be described thus: Competition binding with 3H-PGE2 on CHO-K1 cells transiently transfected with baboon EP4. As to conditions: for IC50: baEP4 transfected CHO-K1 whole cells, 3 nM 3H-PGE2, 1 hr on ice, read-out: IC50, displacement of 3H-PGE2 binding. Background: In a radioligand displacement assay an active substance lowers the binding of a labelled ligand.
Method: Following washing and solubilization of the cells, specific binding was determined by scintillation counting.
(§4) To test the binding and signaling characteristics of this putative ba/cynEP4 receptor, DNA fragments containing the entire open reading frames of each baboon and cynomolgus macaque were separately transiently transfected into CHO—K1 cells.
The day prior to transfection, CHO—K1 cells were plated in 100 mm dishes (Corning, Corning, N.Y.) at 6×10^4 cells/cm^2 in DMEM/F12 (Life Technologies) supplemented with 10% fetal calf serum (FCS; Gemini Bio-Products, Calabasas, Calif.). The next day, each plate of cells was transfected with 15 g of either baboon or cynomolgus macaque EP4-pCR3.1-Uni plasmid DNA using Lipofectamine 2000 reagent (Life Technologies) according to the manufacturer's protocol. Briefly, 45 l of Lipofectamine 2000 reagent was diluted into 1.5 ml of D-MEM/F12 without serum and incubated at room temperature for 5 minutes. During this time, 15 g of either baboon or cynomolgus macaque EP4-pCR3.1-Uni plasmid DNA was diluted into 0.5 ml of D-MEM/F12 without serum. The diluted Lipofectamine 2000 reagent and the DNA were then mixed and incubated an additional 20 minutes at room temperature. 8 ml D-MEM/F12 without serum was then added to each reaction and carefully added to a plate of CHO cell previously rinsed with serum free D-MEM/F12. These cells were then incubated at 37° C. with 5% CO2 for 6 hr at which time 1 ml FCS was added per plate and the incubation continued at 37° C. with 5% CO2 overnight. The following day, the cells were split to either 24-well or 96-well dishes for use in ligand binding and/or secondary signaling analyses.
CHO cells transiently transfected with the baboon EP4 or cynomolgus macaque EP4 receptor were plated at 60,000 cells/well in 24-well tissue-culture dishes (Corning, Corning, N.Y.) and allowed to grow for 48 hours. […] Unbound radioligand was removed by extensive washing, the cells were solubilized with 1% SDS, and the bound ^3H-PGE2 quantitated by scintillation counting.

In test [3] the target is T2, baboon prostaglandin receptor EP4 (baEP4). In words: cAMP accumulation (SPA) in CHO cells transiently transfected with baboon EP4. The format is cell-based. As to conditions: 12 minutes treatment, IBMX present. The protocol:
FIG. 6 provides characterization of secondary signaling in CHO cells expressing baboon prostaglandin receptor EP4. An SPA assay was performed on CHO cells transiently transfected with baboon EP4 following treatment for 12 minutes with either (▪) PGE2 or the EP4 specific ligand (●) EP4SL. Error bars represent one standard deviation.
as §1, §2, §3

Test [4] has as its target T1, cynomolgus macaque prostaglandin receptor EP4 (cynEP4). The test can be described thus: Competition binding with 3H-PGE2 on CHO-K1 cells transiently transfected with cynomolgus macaque EP4. As to conditions: for IC50: cynEP4 transfected CHO-K1 whole cells, 3 nM 3H-PGE2, 1 hr on ice, read-out: IC50, displacement of 3H-PGE2 binding.
Method: Each indicated concentration of (▪) PGE2, (♦) EP4SL, (▴) butaprost, or (●) sulprostone was incubated with three wells of a 24-well dish of CHO cells transiently transfected with cynEP4 for 1 hr on ice in the presence of 3 nM ^3H-PGE2. Following washing and solubilization of the cells, specific binding was determined by scintillation counting.
as §4
CHO cells transiently transfected with the baboon EP4 or cynomolgus macaque EP4 receptor were plated at 60,000 cells/well in 24-well tissue-culture dishes (Corning, Corning, N.Y.) and allowed to grow for 48 hours. Whole cell binding reactions (0.2 ml per well) containing 3 nM ^3H-PGE2 plus unlabeled competitor (10^−5 to 10^−10 M) were performed on ice for 1 hr. Unbound radioligand was removed by extensive washing, the cells were solubilized with 1% SDS, and the bound ^3H-PGE2 quantitated by scintillation counting.

By EC50 is commonly meant the concentration that produces a half-maximal response. Usually IC50 stands for the midpoint of a concentration-inhibition curve.

Molecules are shown by their SMILES.

T2 sequence (Q7JGJ7 entry or part of it): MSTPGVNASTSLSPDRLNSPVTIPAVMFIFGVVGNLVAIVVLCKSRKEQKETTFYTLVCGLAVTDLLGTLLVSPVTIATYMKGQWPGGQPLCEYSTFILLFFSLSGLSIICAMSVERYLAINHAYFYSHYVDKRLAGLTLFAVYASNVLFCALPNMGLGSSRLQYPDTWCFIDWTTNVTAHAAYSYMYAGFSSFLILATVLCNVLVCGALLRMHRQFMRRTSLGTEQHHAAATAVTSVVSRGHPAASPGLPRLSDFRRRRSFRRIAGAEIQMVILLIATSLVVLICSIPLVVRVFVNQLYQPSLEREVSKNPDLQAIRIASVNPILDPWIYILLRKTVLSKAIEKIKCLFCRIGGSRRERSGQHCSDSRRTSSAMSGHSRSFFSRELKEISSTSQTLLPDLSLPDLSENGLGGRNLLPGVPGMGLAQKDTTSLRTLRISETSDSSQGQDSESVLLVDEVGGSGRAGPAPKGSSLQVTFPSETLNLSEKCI
T1 sequence (Q95J39 entry or part of it): as the sequence (Q7JGJ7 entry or part of it) above

Consider `O=C(O)CCCCCCN1C(=O)CCC1CCC(O)Cc1ccccc1` (stereo not drawn) [EP4SL, 7-[2-(3-hydroxy-4-phenyl-butyl)-5-oxo-pyrrolidin-1-yl]-heptanoic acid], for which the values for the EC50 in test [1] and in test [3] were 560 nM and 872 nM, respectively. Moreover, the “increased levels of cAMP, result in words” value with parental CHO—K1 cells is given as “not in parental CHO—K1 cells”. The results for the IC50 in test [2] and in test [4] were 361 nM and 300 nM, respectively.

With `CCCCC[C@H](O)/C=C/[C@H]1[C@H](O)CC(=O)[C@@H]1C/C=C\CCCC(=O)O` [PGE2, Prostaglandin E2], the EC50 in test [1] came to 8.9 nM; in test [3], 22.4 nM. The “increased levels of cAMP, result in words” value in the test with parental CHO—K1 cells is recorded as “not in parental CHO—K1 cells”. Further, the IC50 turned out to be 2.6 nM in test [2] and 2.5 nM in test [4].

As for `CCCC1([C@H](O)C/C=C/[C@H]2[C@H](O)CC(=O)[C@@H]2CCCCCCC(=O)OC)CCC1` [butaprost], the “binding to the receptor (competition with 3H-PGE2), result in words” value is “did not bind” in test [2] (baEP4 transfected CHO-K1 cells, competitor 10^-5 to 10^-10 M) and “did not bind” in test [4] (cynEP4 transfected CHO-K1 cells, competitor 10^-5 to 10^-10 M).
